{"source": "patent US20150374646A1", "about": "“TREATMENT OF CANCER AND OTHER CONDITIONS USING A TRANSCRIPTION FACTOR MODULATOR” (C & C BIOPHARMA, LLC, priority 2013, published 2015)", "format_in_all_cases": "cell-based", "key": {"U266": {"system": "U266", "test": "Leukemia cell growth inhibition, CellTiter-Glo (Example 1)", "conditions": "Homo sapiens, U-266; U266, Multiple myeloma; 72 hours", "description": "(§2) Various human leukemia cells were grown to the logarithmic growth phase and seeded into 24-well plates. […] Treated cells were further incubated for 72 hours and then were examined for cell proliferation. Cell proliferation was determined using the CellTiter-Glo Luminescence Cell Viability assay (Promega Corporation, Madison, Wis.) according to the manufacturer's protocol. The calculated inhibition rate was determined with the following formula: Inhibition rate (%)=(1−Luminescence of experimental group/Luminescence of control group)×100. IC50 is the calculated concentration of a compound needed to inhibit half of the maximum cell growth (equivalent to cell growth in control group) based on the corresponding dose-response curve under the described experimental conditions."}, "RPMI-8226 [1]": {"system": "RPMI-8226", "test": "Leukemia cell growth inhibition, CellTiter-Glo (Example 1)", "conditions": "Homo sapiens; RPMI-8226, Multiple myeloma; 72 hours", "description": "as §2"}, "Jurkat": {"system": "Jurkat", "test": "Leukemia cell growth inhibition, CellTiter-Glo (Example 1)", "conditions": "Homo sapiens, ALL (T-cell), 72 hours", "description": "as §2"}, "A549": {"system": "A549", "test": "Cancer cell line growth inhibition, CellTiter-Glo (Example 3)", "conditions": "Homo sapiens, NSCLC, 72 hours, read-out: IC50", "protocol": "(§1) YT30 was tested for growth inhibition against 67 human cancer cell lines derived from diverse tissues including the National Cancer Institute human cancer cell lines (NCI-60). […] Cells in different wells were treated with various concentrations of YT30, YT86, YT88, or YT128. […] Cell viabilities were determined by the CellTiter-Glo Luminescence Cell Viability assay kit (Promega Corporation, Madison, Wis.) according to manufacturer's protocol."}, "ACHN": {"system": "ACHN", "test": "Cancer cell line growth inhibition, CellTiter-Glo (Example 3)", "conditions": "Homo sapiens, Renal, 72 hours", "protocol": "as §1"}, "CAK1": {"system": "CAK1", "test": "Cancer cell line growth inhibition, CellTiter-Glo (Example 3)", "conditions": "Homo sapiens, Renal, 72 hours", "protocol": "as §1"}, "CCRF-CEM": {"system": "CCRF-CEM", "test": "Cancer cell line growth inhibition, CellTiter-Glo (Example 3)", "conditions": "Homo sapiens, Leukemia, 72 hours, read-out: IC50", "protocol": "as §1"}, "Caski": {"system": "Caski", "test": "Cancer cell line growth inhibition, CellTiter-Glo (Example 3)", "conditions": "Homo sapiens, Ca-Ski, Cervical, 72 hours, read-out: IC50", "protocol": "as §1"}, "Colo 205": {"system": "Colo 205", "test": "Cancer cell line growth inhibition, CellTiter-Glo (Example 3)", "conditions": "Homo sapiens, Colon, 72 hours", "protocol": "as §1"}, "DU-145": {"system": "DU-145", "test": "Cancer cell line growth inhibition, CellTiter-Glo (Example 3)", "conditions": "Homo sapiens, Prostate, 72 hours, read-out: IC50", "protocol": "as §1"}, "HOP-62": {"system": "HOP-62", "test": "Cancer cell line growth inhibition, CellTiter-Glo (Example 3)", "conditions": "Homo sapiens, NSCLC, 72 hours", "protocol": "as §1"}, "HOP-92": {"system": "HOP-92", "test": "Cancer cell line growth inhibition, CellTiter-Glo (Example 3)", "conditions": "Homo sapiens, NSCLC, 72 hours", "protocol": "as §1"}, "HS 578T": {"system": "HS 578T", "test": "Cancer cell line growth inhibition, CellTiter-Glo (Example 3)", "conditions": "Homo sapiens, Breast, 72 hours, read-out: IC50", "protocol": "as §1"}, "HeLa": {"system": "HeLa", "test": "Cancer cell line growth inhibition, CellTiter-Glo (Example 3)", "conditions": "Homo sapiens, Cervical, 72 hours, read-out: IC50", "protocol": "as §1"}, "HepG2": {"system": "HepG2", "test": "Cancer cell line growth inhibition, CellTiter-Glo (Example 3)", "conditions": "Homo sapiens, Liver, 72 hours", "protocol": "as §1"}, "LOX IMVI": {"system": "LOX IMVI", "test": "Cancer cell line growth inhibition, CellTiter-Glo (Example 3)", "conditions": "Homo sapiens, Melanoma, 72 hours", "protocol": "as §1"}, "MALME-3M": {"system": "MALME-3M", "test": "Cancer cell line growth inhibition, CellTiter-Glo (Example 3)", "conditions": "Homo sapiens, Melanoma, 72 hours", "protocol": "as §1"}, "MDA-MB-435": {"system": "MDA-MB-435", "test": "Cancer cell line growth inhibition, CellTiter-Glo (Example 3)", "conditions": "Homo sapiens, Melanoma, 72 hours, read-out: IC50", "protocol": "as §1"}, "MOLT-4": {"system": "MOLT-4", "test": "Cancer cell line growth inhibition, CellTiter-Glo (Example 3)", "conditions": "Homo sapiens, Leukemia, 72 hours, read-out: IC50", "protocol": "as §1"}, "NCI-H226": {"system": "NCI-H226", "test": "Cancer cell line growth inhibition, CellTiter-Glo (Example 3)", "conditions": "Homo sapiens, NSCLC, 72 hours", "protocol": "as §1"}, "NCI-H23": {"system": "NCI-H23", "test": "Cancer cell line growth inhibition, CellTiter-Glo (Example 3)", "conditions": "Homo sapiens, NSCLC, 72 hours", "protocol": "as §1"}, "NCI-H460": {"system": "NCI-H460", "test": "Cancer cell line growth inhibition, CellTiter-Glo (Example 3)", "conditions": "Homo sapiens, NSCLC, 72 hours", "protocol": "as §1"}, "NCI-H522": {"system": "NCI-H522", "test": "Cancer cell line growth inhibition, CellTiter-Glo (Example 3)", "conditions": "Homo sapiens, NSCLC, 72 hours", "protocol": "as §1"}, "RPMI-8226 [2]": {"system": "RPMI-8226", "test": "Cancer cell line growth inhibition, CellTiter-Glo (Example 3)", "conditions": "Homo sapiens, Leukemia, 72 hours", "protocol": "as §1"}, "SF-295": {"system": "SF-295", "test": "Cancer cell line growth inhibition, CellTiter-Glo (Example 3)", "conditions": "Homo sapiens, CNS, 72 hours, read-out: IC50", "protocol": "as §1"}, "SF-539": {"system": "SF-539", "test": "Cancer cell line growth inhibition, CellTiter-Glo (Example 3)", "conditions": "Homo sapiens, CNS, 72 hours, read-out: IC50", "protocol": "as §1"}, "SK-MEL-28": {"system": "SK-MEL-28", "test": "Cancer cell line growth inhibition, CellTiter-Glo (Example 3)", "conditions": "Homo sapiens, Melanoma, 72 hours", "protocol": "as §1"}, "SK-MEL-5": {"system": "SK-MEL-5", "test": "Cancer cell line growth inhibition, CellTiter-Glo (Example 3)", "conditions": "Homo sapiens, Melanoma, 72 hours", "protocol": "as §1"}, "SK-OV-3": {"system": "SK-OV-3", "test": "Cancer cell line growth inhibition, CellTiter-Glo (Example 3)", "conditions": "Homo sapiens, Ovary, 72 hours", "protocol": "as §1"}, "SN12C": {"system": "SN12C", "test": "Cancer cell line growth inhibition, CellTiter-Glo (Example 3)", "conditions": "Homo sapiens, Renal, 72 hours, read-out: IC50", "protocol": "as §1"}, "SR": {"system": "SR", "test": "Cancer cell line growth inhibition, CellTiter-Glo (Example 3)", "conditions": "Homo sapiens, Leukemia, 72 hours, read-out: IC50", "protocol": "as §1"}, "SW-620": {"system": "SW-620", "test": "Cancer cell line growth inhibition, CellTiter-Glo (Example 3)", "conditions": "Homo sapiens, Colon, 72 hours", "protocol": "as §1"}, "U251": {"system": "U251", "test": "Cancer cell line growth inhibition, CellTiter-Glo (Example 3)", "conditions": "Homo sapiens, U-251, CNS, 72 hours, read-out: IC50", "protocol": "as §1"}, "UACC-257": {"system": "UACC-257", "test": "Cancer cell line growth inhibition, CellTiter-Glo (Example 3)", "conditions": "Homo sapiens, Melanoma, 72 hours", "protocol": "as §1"}, "UO-31": {"system": "UO-31", "test": "Cancer cell line growth inhibition, CellTiter-Glo (Example 3)", "conditions": "Homo sapiens, Renal, 72 hours, read-out: IC50", "protocol": "as §1"}, "siHa": {"system": "siHa", "test": "Cancer cell line growth inhibition, CellTiter-Glo (Example 3)", "conditions": "Homo sapiens, Cervical, 72 hours, read-out: IC50", "protocol": "as §1"}}, "data": [{"smiles": "Nc1ccccc1NC(=O)CCCCCC(=O)Nc1cccc(Br)c1", "note": "[YT30]", "values": [{"measurement": "IC50", "setting": "U266", "value": 8.29, "unit": "µM"}, {"measurement": "IC50", "setting": "RPMI-8226 [1]", "value": 2, "unit": "µM"}, {"measurement": "IC50", "setting": "Jurkat", "value": 0.91, "unit": "µM"}, {"measurement": "IC50", "setting": "A549", "value": 3.41, "unit": "µM"}, {"measurement": "IC50", "setting": "ACHN", "value": 12.5, "unit": "µM"}, {"measurement": "IC50", "setting": "CAK1", "value": 11.7, "unit": "µM"}, {"measurement": "IC50", "setting": "CCRF-CEM", "value": 1.53, "unit": "µM"}, {"measurement": "IC50", "setting": "Caski", "value": 5, "unit": "µM"}, {"measurement": "IC50", "setting": "Colo 205", "value": 14.4, "unit": "µM"}, {"measurement": "IC50", "setting": "DU-145", "value": 4.98, "unit": "µM"}, {"measurement": "IC50", "setting": "HOP-62", "value": 29.6, "unit": "µM"}, {"measurement": "IC50", "setting": "HOP-92", "value": 11, "unit": "µM"}, {"measurement": "IC50", "setting": "HS 578T", "value": 10.8, "unit": "µM"}, {"measurement": "IC50", "setting": "HeLa", "value": 4.3, "unit": "µM"}, {"measurement": "IC50", "setting": "HepG2", "value": 12.7, "unit": "µM"}, {"measurement": "IC50", "setting": "LOX IMVI", "value": 3.03, "unit": "µM"}, {"measurement": "IC50", "setting": "MALME-3M", "value": 5.84, "unit": "µM"}, {"measurement": "IC50", "setting": "MDA-MB-435", "value": 10.4, "unit": "µM"}, {"measurement": "IC50", "setting": "MOLT-4", "value": 1.13, "unit": "µM"}, {"measurement": "IC50", "setting": "NCI-H226", "value": 12.7, "unit": "µM"}, {"measurement": "IC50", "setting": "NCI-H23", "value": 11, "unit": "µM"}, {"measurement": "IC50", "setting": "NCI-H460", "value": 5.41, "unit": "µM"}, {"measurement": "IC50", "setting": "NCI-H522", "value": 8.15, "unit": "µM"}, {"measurement": "IC50", "setting": "RPMI-8226 [2]", "value": 2, "unit": "µM"}, {"measurement": "IC50", "setting": "SF-295", "value": 10.3, "unit": "µM"}, {"measurement": "IC50", "setting": "SF-539", "value": 10.8, "unit": "µM"}, {"measurement": "IC50", "setting": "SK-MEL-28", "value": 5.99, "unit": "µM"}, {"measurement": "IC50", "setting": "SK-MEL-5", "value": 3.87, "unit": "µM"}, {"measurement": "IC50", "setting": "SK-OV-3", "value": 8.09, "unit": "µM"}, {"measurement": "IC50", "setting": "SN12C", "value": 9.52, "unit": "µM"}, {"measurement": "IC50", "setting": "SR", "value": 6.89, "unit": "µM"}, {"measurement": "IC50", "setting": "SW-620", "value": 11, "unit": "µM"}, {"measurement": "IC50", "setting": "U251", "value": 7.36, "unit": "µM"}, {"measurement": "IC50", "setting": "UACC-257", "value": 6.1, "unit": "µM"}, {"measurement": "IC50", "setting": "UO-31", "value": 10.7, "unit": "µM"}, {"measurement": "IC50", "setting": "siHa", "value": 13.1, "unit": "µM"}]}]}
